Target: T1, VP16dEcR/RXR (Drosophila melanogaster, UniProt P34021)
T1 construct: expressed in transfected cells; host or cells: CHO
T1 sequence (P34021 252-878 limits assumed): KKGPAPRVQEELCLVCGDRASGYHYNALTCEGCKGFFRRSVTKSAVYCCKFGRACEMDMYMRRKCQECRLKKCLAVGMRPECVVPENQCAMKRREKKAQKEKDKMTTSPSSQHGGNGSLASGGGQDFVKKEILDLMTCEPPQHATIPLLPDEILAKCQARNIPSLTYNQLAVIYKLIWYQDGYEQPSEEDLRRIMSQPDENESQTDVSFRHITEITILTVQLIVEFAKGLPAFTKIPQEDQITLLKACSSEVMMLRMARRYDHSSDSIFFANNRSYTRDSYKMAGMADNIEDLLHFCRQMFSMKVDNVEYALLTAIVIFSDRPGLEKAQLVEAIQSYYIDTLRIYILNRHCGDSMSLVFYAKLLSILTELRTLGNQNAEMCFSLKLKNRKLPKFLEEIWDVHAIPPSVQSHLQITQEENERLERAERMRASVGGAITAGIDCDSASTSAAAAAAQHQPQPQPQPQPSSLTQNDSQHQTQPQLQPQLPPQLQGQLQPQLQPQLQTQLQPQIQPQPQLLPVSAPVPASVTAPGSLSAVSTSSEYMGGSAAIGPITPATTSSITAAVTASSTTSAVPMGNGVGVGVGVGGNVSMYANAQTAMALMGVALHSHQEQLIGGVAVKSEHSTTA
T1 sequence (P28700 1-467 partner): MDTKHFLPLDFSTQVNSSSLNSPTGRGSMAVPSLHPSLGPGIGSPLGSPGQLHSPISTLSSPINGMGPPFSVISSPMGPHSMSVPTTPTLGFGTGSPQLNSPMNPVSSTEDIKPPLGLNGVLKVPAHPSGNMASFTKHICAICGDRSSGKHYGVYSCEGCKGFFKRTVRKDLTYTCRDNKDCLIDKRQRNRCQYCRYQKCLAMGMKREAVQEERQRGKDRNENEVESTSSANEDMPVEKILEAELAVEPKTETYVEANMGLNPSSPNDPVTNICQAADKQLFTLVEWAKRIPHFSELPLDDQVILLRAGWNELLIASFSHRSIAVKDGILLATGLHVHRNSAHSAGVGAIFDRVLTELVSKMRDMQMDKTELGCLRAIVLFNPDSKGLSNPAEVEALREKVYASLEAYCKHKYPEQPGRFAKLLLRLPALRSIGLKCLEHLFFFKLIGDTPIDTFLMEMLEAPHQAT
Assay: VP16dEcR with RXR, (EcRE)5-ΔMTV reporter in CHO cells
Assay type: cell-based
Parameters: key to MurA (inducibility): (+) designates a change in transcriptional level that exceeds 2.5-fold; (++) indicates a response at a lower dosage than other EcR forms
Experimental: These experiments employed a mammalian cell culture system using Chinese hamster ovary cells (CHO) to evaluate the transcriptional function of Drosophila melanogaster EcR and USP using methods described previously (U.S. Patent Application Publication No: 2005/0049230; Henrich et al, 2003). Cells were seeded in 6-well polypropylene culture plates (Falcon) with 10^5 cells per well on the day prior to transfection. Transfection was subsequently performed using either calcium phosphate (Kitareewan et al., 1996, Mol. Biol. Cell, 7:1153-1196) or a GenePorter reagent (Gene Therapy Systems, Inc; San Diego, Calif.) following manufacturer's protocols. Each well received 1.25 μg of (EcRE)5-ΔMTV-CAT (five copies of the hsp27 EcRE inserted into an mouse mammary tumor virus (MTV) promoter upstream of the chloramphenicol acetyltransferase (CAT) gene) or (EcRE)5-ΔMTV-LUC (the same promoter attached to firefly luciferase), 1.25 μg of pCH111 (SV40 early promoter linked to the β-galactosidase gene) to normalize CAT activity, and 0.25 μg of each expression plasmid (EcR, FXR, RXR, USP) that was tested. The cells were incubated with plasmid DNA for seven hours and then washed with 1×PBS. Muristerone A (murA; Alexis Biochemicals) or 20-hydroxyecdysone (20E; Sigma) dissolved in ethanol to a concentration of 10 mM was diluted as necessary to the final assay concentration (FAC) in 2 ml of fresh incubation medium that was then applied to the cells. Similarly, JHIII (Sigma) was dissolved in dimethyl sulfoxide (DMSO) to a concentration of 80 μM and diluted into the incubation medium to its final assay concentration (20, 40, 80, 160 μM). […] A corresponding volume of ethanol and DMSO were added to control cells for all experiments. […] Both β-galactosidase and CAT reporter activity were measured based on previously used methods (Kitareewan et al, 1996). […]
Transcriptional activity, measured as ^14C-chloramphenicol counts (for measuring CAT activity) or relative luciferase activity (RLU) was quantified for each cell lysate. […]

CC(C)(O)CC[C@@H](O)[C@](C)(O)[C@H]1CC[C@@]2(O)C3=CC(=O)[C@@H]4C[C@@H](O)[C@@H](O)C[C@]4(C)[C@H]3CC[C@]12C [20E, 20-hydroxyecdysone]
20E (inducibility) (10 μM 20E): + ((+) designates a change in transcriptional level that exceeds 2.5-fold)

COC(=O)/C=C(\C)CC/C=C(\C)CC[C@H]1OC1(C)C [JHIII, juvenile hormone III]
MurA + JHIII (JHIII potentiation) (0.1 μM murA + 80 μM JHIII): + ((+) indicates observed potentiation that exceeds 2-fold above the levels observed with ecdysteroid alone)

CC(C)CC[C@@H](O)[C@](C)(O)[C@H]1CC[C@@]2(O)C3=CC(=O)[C@]4(O)C[C@@H](O)[C@@H](O)C[C@]4(C)[C@H]3[C@H](O)C[C@]12C [murA, muristerone A]
MurA (inducibility) (0.1 μM murA): ++

— patent US8637237B2, “Methods, compositions, and systems for the identification of species-specific or developmental stage-specific insecticides” (The University of North Carolina at Greensboro, priority 2003, dated 2014)
